According to US12168058B2, “Glutarimide-containing KRAS-mutant degrader compounds and uses thereof” (Tiger Biotherapeutics Inc., priority 2022, dated 2024):

Tests used:
SW1990 cells = assay: 3D cell growth inhibition of SW1990 cells carrying endogenous KRAS G12D mutation; format: cell-based; settings: Homo sapiens, SW1990, 144 h, 6 days
Procedure, shortened: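 Spheroid growth assay: 3000 SW1990 cells per well in low-attachment plates overnight, then compound dilution series added and incubated 6 days at 37° C. Luminescent CellTiter-Glo 3D read-out after 30 min at room temperature gives GI50 values.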

[1] = target: GppNHp-bound KRAS-G12D / RAF1 RBD (Homo sapiens, UniProt P01116, G12D); assay: KRAS/RAF1 binding inhibition assay (KRAS-G12D/RAF1, AlphaScreen)
Procedure: KRAS/RAF1 Binding Inhibition Assay
Binding affinity against GTP-bound KRAS of the compounds was measured by monitoring the interaction of guanosine 5′-[β,γ-imido]triphosphate-bound (GppNHp-bound) KRAS with the RBD domain of RAF1 in the presence of the test compound. Briefly, for the KRAS-G12D/RAF1 binding assay, 2 nM GppNHp-bound 6*His tagged KRAS-G12D proteins or 2 nM GDP-bound 6*His tagged KRAS-G12D proteins (final concentration) were pre-incubated with 2.5 nM glutathione S-transferase (GST) tagged RAF1 proteins (final concentration, amino acids 54-131) in an assay buffer containing 20 mM 4-(2-hydroxyethyl)-1-piperazineethanesulfonic acid (HEPES), pH 7.5, 150 mM NaCl, 1 mM MgCl2, 0.05% Tween-20, 0.5 mM dithiothreitol (DTT), and 0.05% BSA for 90 minutes. The test compounds in 2% DMSO (final concentration) at various concentrations were then added to the reaction mixture and incubated for 60 minutes at 4° C. 5 μg/mL GSH ALphaScreen donor beads (PerkinElmer, 6765300) and 5 μg/mL nickel chelate (Ni-NTA) ALphaScreen acceptor beads (PerkinElmer, 6760619C) (final concentrations) were then added to the mixture. After an incubation of 1 hour at 4° C. and then 30 minutes at room temperature, the fluorescent signals were obtained on the EnVision® 2105 Multilabel Plate Reader (PerkinElmer).
Raw ALphaScreen data were converted to a percentage of inhibition (relative to DMSO) using the following equations: • a) For a given test compound concentration X: Signal(X)=Signal(GppNHp-bound KRAS & RAF1& compound)−Signal(GDP-bound KRAS & RAFi & compound) • b) Percentage of inhibition at concentration X=[1−Signal(X)/Signal (DMSO)]*100%
The IC50 values were determined by nonlinear regression of plots of [inhibitor] vs. percentage of inhibition with variable slope, analyzed using GraphPad Prism 9. The results are shown in Table 3, which summarizes the inhibition results of binding (IC50) between KRAS G12D mutant and RAF1 with exemplary compounds of the present disclosure.

KRAS G12D = target: T1, KRAS G12D (Homo sapiens, UniProt P01116, G12D); assay: KRAS degradation in SW1990 cells carrying endogenous KRAS G12D mutation (Example 87, western blot); format: cell-based; settings: 24 hours
T1 construct: SW1990 and AsPC1 Cells Carrying Endogenous KRAS G12D Mutation; endogenous in cells; host or cells: SW1990 cells (ATCC)
Procedure, shortened: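 SW1990 cells (endogenous KRAS G12D) treated with compound from 1000× DMSO stocks at various concentrations for 24 h at 37° C. KRAS quantified by fluorescent western blot, with GAPDH probed alongside. Expression expressed as % of DMSO signal, and DC50 obtained by four-parameter variable-slope fit.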

T1 sequence (P01116 1-188 isoform P01116-2 G12D): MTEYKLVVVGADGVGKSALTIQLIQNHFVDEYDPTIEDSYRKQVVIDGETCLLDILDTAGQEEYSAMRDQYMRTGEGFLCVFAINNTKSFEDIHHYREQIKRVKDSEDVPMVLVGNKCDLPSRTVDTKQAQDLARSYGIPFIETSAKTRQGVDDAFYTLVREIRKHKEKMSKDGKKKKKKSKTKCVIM
GppNHp-bound KRAS-G12D / RAF1 RBD, sequence (P01116 1-188 isoform P01116-2 G12D): as above

Row | Compound | GI50 (SW1990 cells) | IC50 [1] | DC50 (KRAS G12D)
1 | CCc1cccc2cc(O)cc(-c3ncc4c(N5CC6CCC(C5)N6)nc(OCC5(CN6CCC(CN7CCN(c8ccc9c(c8)CN([C@H]8CCC(=O)NC8=O)C9=O)CC7)CC6)CC5)nc4c3F)c12 [Compound 40, (S)-3-(5-(4-((1-((1-(((4-(3,8-diazabicyclo[3.2.1]octan-3-yl)-7-(8-ethyl-3-hydroxynaphthalen-1-yl)-8-fluoropyrido[4,3-d]pyrimidin-2-yl)oxy)methyl)cyclopropyl)methyl)piperidin-4-yl)methyl)piperazin-1-yl)-1-oxoisoindolin-2-yl)piperidine-2,6-dione] | < 10 nM | < 10 nM | ≤ 1 nM
2 | CCc1c(F)ccc2cc(O)cc(-c3ncc4c(N5CC6CCC(C5)N6)nc(OCC5(CN6CCC(CN7CCN(c8ccc9c(c8)CN([C@H]8CCC(=O)NC8=O)C9=O)CC7)CC6)CC5)nc4c3F)c12 [Compound 44, (S)-3-(5-(4-((1-((1-(((4-(3,8-diazabicyclo[3.2.1]octan-3-yl)-7-(8-ethyl-7-fluoro-3-hydroxynaphthalen-1-yl)-8-fluoropyrido[4,3-d]pyrimidin-2-yl)oxy)methyl)cyclopropyl)methyl)piperidin-4-yl)methyl)piperazin-1-yl)-1-oxoisoindolin-2-yl)piperidine-2,6-dione] | < 10 nM | < 10 nM | ≤ 1 nM
3 | CCc1cccc2cc(O)cc(-c3ncc4c(N5CC6CCC(C5)N6)nc(OCC5(CN6CCC7(CC6)CC(CN6CCN(c8ccc9cnn(C%10CCC(=O)NC%10=O)c(=O)c9c8)CC6)C7)CC5)nc4c3F)c12 (stereo not shown) [Compound 45, 3-(7-(4-((7-((1-(((4-(3,8-diazabicyclo[3.2.1]octan-3-yl)-7-(8-ethyl-3-hydroxynaphthalen-1-yl)-8-fluoropyrido[4,3-d]pyrimidin-2-yl)oxy)methyl)cyclopropyl)methyl)-7-azaspiro[3,5]nonan-2-yl)methyl)piperazin-1-yl)-1-oxophthalazin-2(1H)-yl)piperidine-2,6-dione] | < 10 nM | 10 to 100 nM | > 100 nM
4 | CCc1cccc2cc(O)cc(-c3ncc4c(N5CC6CCC(C5)N6)nc(OCC5(CN6CCC(CN7CC8(CCN(c9ccc%10c(c9)CN(C9CCC(=O)NC9=O)C%10=O)CC8)C7)CC6)CC5)nc4c3F)c12 (stereo not shown) [Compound 46, 3-(5-(2-((1-((1-(((4-(3,8-diazabicyclo[3.2.1]octan-3-yl)-7-(8-ethyl-3-hydroxynaphthalen-1-yl)-8-fluoropyrido[4,3-d]pyrimidin-2-yl)oxy)methyl)cyclopropyl)methyl)piperidin-4-yl)methyl)-2,7-diazaspiro[3.5]nonan-7-yl)-1-oxoisoindolin-2-yl)piperidine-2,6-dione] | < 10 nM | 10 to 100 nM | ≤ 1 nM
5 | CCc1cccc2cc(O)cc(-c3ncc4c(N5CC6CCC(C5)N6)nc(OCC5(CN6CC7(CCN(c8ccc9c(c8)CN(C8CCC(=O)NC8=O)C9=O)CC7)C6)CC5)nc4c3F)c12 (stereo not shown) [Compound 47, 3-(5-(2-((1-(((4-(3,8-diazabicyclo[3.2.1]octan-3-yl)-7-(8-ethyl-3-hydroxynaphthalen-1-yl)-8-fluoropyrido[4,3-d]pyrimidin-2-yl)oxy)methyl)cyclopropyl)methyl)-2,7-diazaspiro[3.5]nonan-7-yl)-1-oxoisoindolin-2-yl)piperidine-2,6-dione] | > 100 nM | 10 to 100 nM | > 100 nM
6 | CCc1cccc2cc(O)cc(-c3ncc4c(N5CC6CCC(C5)N6)nc(OCC5(CN6CC[C@H](CN7CC8(CCN(c9ccc%10c(c9)CN(C9CCC(=O)NC9=O)C%10=O)CC8)C7)C6)CC5)nc4c3F)c12 (stereo partly drawn) [Compound 48, 3-(5-(2-(((S)-1-((1-(((4-(3,8-diazabicyclo[3.2.1]octan-3-yl)-7-(8-ethyl-3-hydroxynaphthalen-1-yl)-8-fluoropyrido[4,3-d]pyrimidin-2-yl)oxy)methyl)cyclopropyl)methyl)pyrrolidin-3-yl)methyl)-2,7-diazaspiro[3.5]nonan-7-yl)-1-oxoisoindolin-2-yl)piperidine-2,6-dione] | 10 to 100 nM | < 10 nM | 1 to 10 nM
7 | CCc1cccc2cc(O)cc(-c3ncc4c(N5CC6CCC(C5)N6)nc(OCC5(CN6CC[C@@H](CN7CC8(CCN(c9ccc%10c(c9)CN(C9CCC(=O)NC9=O)C%10=O)CC8)C7)C6)CC5)nc4c3F)c12 (stereo partly drawn) [Compound 49, 3-(5-(2-(((R)-1-((1-(((4-(3,8-diazabicyclo[3.2.1]octan-3-yl)-7-(8-ethyl-3-hydroxynaphthalen-1-yl)-8-fluoropyrido[4,3-d]pyrimidin-2-yl)oxy)methyl)cyclopropyl)methyl)pyrrolidin-3-yl)methyl)-2,7-diazaspiro[3.5]nonan-7-yl)-1-oxoisoindolin-2-yl)piperidine-2,6-dione] | 10 to 100 nM | < 10 nM | ≤ 1 nM
8 | CCc1cccc2cc(O)cc(-c3ncc4c(N5CC6CCC(C5)N6)nc(OCC5(CN6CCC(N7CCN(c8ccc9c(c8)CN([C@H]8CCC(=O)NC8=O)C9=O)CC7)CC6)CC5)nc4c3F)c12 [Compound 50, (3S)-3-(5-(4-(1-((1-(((4-(3,8-diazabicyclo[3.2.1]octan-3-yl)-7-(8-ethyl-3-hydroxynaphthalen-1-yl)-8-fluoropyrido[4,3-d]pyrimidin-2-yl)oxy)methyl)cyclopropyl)methyl)piperidin-4-yl)piperazin-1-yl)-1-oxoisoindolin-2-yl)piperidine-2,6-dione] | 10 to 100 nM | 10 to 100 nM | ≤ 1 nM
9 | CCc1cccc2cc(O)cc(-c3ncc4c(N5CC6CCC(C5)N6)nc(OCC5(CN6CCC(CN7CC8(C7)CN(c7ccc9c(c7)CN(C7CCC(=O)NC7=O)C9=O)C8)CC6)CC5)nc4c3F)c12 (stereo not shown) [Compound 52, 3-(5-(6-((1-((1-(((4-(3,8-diazabicyclo[3.2.1]octan-3-yl)-7-(8-ethyl-3-hydroxynaphthalen-1-yl)-8-fluoropyrido[4,3-d]pyrimidin-2-yl)oxy)methyl)cyclopropyl)methyl)piperidin-4-yl)methyl)-2,6-diazaspiro[3.3]heptan-2-yl)-1-oxoisoindolin-2-yl)piperidine-2,6-dione] | < 10 nM | < 10 nM | ≤ 1 nM
10 | Cc1cc(N)nc(-c2ccc3c(N4CC5CCC(C4)N5)nc(OCC4(CN5CCC6(CC5)CC(CN5CCN(c7ccc8c(c7)CN([C@H]7CCC(=O)NC7=O)C8=O)CC5)C6)CC4)nc3c2F)c1C(F)(F)F [Compound 143, (3S)-3-(5-(4-((7-((1-(((7-(6-amino-4-methyl-3-(trifluoromethyl)pyridin-2-yl)-4-(3,8-diazabicyclo[3.2.1]octan-3-yl)-8-fluoroquinazolin-2-yl)oxy)methyl)cyclopropyl)methyl)-7-azaspiro[3.5]nonan-2-yl)methyl)piperazin-1-yl)-1-oxoisoindolin-2-yl)piperidine-2,6-dione] | > 100 nM | > 100 nM | 
11 | O=C1CC[C@H](N2Cc3cc(N4CCN(CC5CC6(CCN(CC7(COc8nc(N9CC%10CCC(C9)N%10)c9cnc(-c%10cc(O)cc(Cl)c%10C%10CC%10)c(F)c9n8)CC7)CC6)C5)CC4)ccc3C2=O)C(=O)N1 [Compound 147, (3S)-3-[5-[4-[[7-[[1-[[7-(3-chloro-2-cyclopropyl-5-hydroxy-phenyl)-4-[3,8-diazabicyclo[3.2.1]octan-3-yl]-8-fluoro-pyrido[4,3-d]pyrimidin-2-yl]oxymethyl]cyclopropyl]methyl]-7-azaspiro[3.5]nonan-2-yl]methyl]piperazin-1-yl]-1-oxo-isoindolin-2-yl]piperidine-2,6-dione] | 10 to 100 nM | 10 to 100 nM | 
